Data taken from patent US9557333B2, “Methods of treating gastrointestinal sarcoma patients depending on their sB7H6 serum level” (INSTITUT GUSTAVE ROUSSY, priority 2012, dated 2017).

What was measured:
[1] = test system: sB7H6; test: Serum sB7H6 measured by ELISA longitudinally during IM treatment of GIST patients; assay type: in vivo, human
Description: 49 GIST patients were treated with imatinib (IM) from May 1994 until October 2010 (BFR14 cohort). Patients' samples were provided by the Gustave Roussy Institute (Villejuif, France) and the Centre Léon Bérard (Lyon). Sera were drained from blood drawn during control visits. Clinical responses were assessed by computed tomography (CT) scan and the responses were classified according to the RECIST criteria.
(§1) sB7H6 and sMIC were assessed from the sera of patients by the ELISA method.
Soluble B7-H6 detection was assessed from sera of patients by the ELISA method: 17B1.3 mAbs was coated at 5 μg/ml in 0.1 M NaHCO3 solution overnight at 4° C. in 96-well Nunc-Immuno™ plates (Thermo Scientific). Blocking solution (PBS supplemented with 3% BSA) was then added overnight at 4° C. After discarding this solution, serial dilutions of sB7-H6 were incubated for 3 hours at room temperature. Then biotin-conjugated 9G9.2 was added to each well (1 μg/ml in PBS supplemented with 1% BSA) for 1 hour at room temperature. Anti-biotin HRP (Sigma-Aldrich) was then added for 1 hour at room temperature. Finally, BD Optia TMB substrate (BD Biosciences) was used to reveal the staining and left to incubate for 15-30 minutes at room temperature. The reaction was stopped with 1 M HCl and the optic density (OD) at 450 nm was read with Apollo LB 911 from Berthold.

[2] = test system: sMIC; test: Serum sMIC measured by ELISA longitudinally during IM treatment of GIST patients; assay type: in vivo, human; conditions: followed during treatment
Description: 49 GIST patients were treated with imatinib (IM) from May 1994 until October 2010 (BFR14 cohort). Patients' samples were provided by the Gustave Roussy Institute (Villejuif, France) and the Centre Léon Bérard (Lyon). Sera were drained from blood drawn during control visits. Clinical responses were assessed by computed tomography (CT) scan and the responses were classified according to the RECIST criteria. GIST tumor samples were obtained following surgery carried out at the Gustave Roussy Institute (Villejuif, France).
as §1

## Cc1ccc(NC(=O)c2ccc(CN3CCN(C)CC3)cc2)cc1Nc1nccc(-c2cccnc2)n1 [IM, imatinib]
[1]; after 1 year of treatment
  levels of sB7H6 in sera after 1 year of IM treatment: not detected
[1]; followed with time of treatment
  levels of sB7H6 in sera during IM treatment: decreased with the time of treatment
[2]
  levels of sMIC in sera following IM treatment: tend to decrease
